We go through 2 compounds from patent EP1063992B1, “SULFURPENTA FLUOROPHENYL PYRAZOLES FOR CONTROLLING ECTOPARASITIC INFESTATIONS” (MERCK & CO., INC., priority 1998, dated 1999).

Where two headings read alike, the source gives them in different places.

One data set concerns fleas and ticks. The following applies: topical application; cited from earlier work.
The conditions of data set [1]: administered systemically, animals; cited from earlier work.
In the next data set the test system is fleas. Description: Activity against fleas in dogs (infestation with about 100 fleas, comb counts about 48 hours later). Format: in vivo. The procedure: (§1) Beagle dogs of both sexes 21 to 31 months old and weighing from 10 to 16 kg were used. Groups of three dogs each were treated with the same active compound in different formulations as follows: • Group 1: topical formulation containing 10% w/v of active compound, 5% w/v polyvinylpyrrolidone 30 and ethanol qs to 100%v/v dosed at 5 mg/kg. • Group 2: long acting parenteral formulation containing 10% w/v of the active compound, 25% w/v of sucrose octaacetate, 1% w/v of propylene glycol octanoate decanoate and triacetin qs 100% v/v dosed subcutaneously at 10 mg/kg. • Group 3: long acting parenteral formulation containing 10% w/v active compound, 10% w/v poly(DL-lactide/glycolide)75/25, and qs 100% v/v 1:1 glycerol formal/triacetin dosed at 10 mg/kg subcutaneously. • Control group of three untreated dogs was included.
Treatments were administered once on Day 0. On Day 1 animals all animals were infested with approximately 100 fleas. Animals were combed and fleas counted and removed approximately 48 hours after infestation. Animals were infested on days 12 and 26, and combed and fleas counted and removed approximately 48 hours after infestation. Infestation/counting were repeated approximately monthly until efficacy fell below 80% [% efficacy = (1 - (mean flea count of treatment group ö mean flea count of control group) x 100).

Data set [2] in a line: Observation for emesis (vomition) in treated dogs. Format: in vivo, Beagle dogs. The following applies: 10 mg/kg subcutaneously. The procedure:
as §1
(§2) Blood samples were collected from animals in treatment groups on Day 0 at 1, 2, 3 and 6 hours after treatment, on Day 1 at 24 hours after treatment, and whenever emesis was observed. Blood samples were also collected when flea counts were determined. Animals were observed hourly for 6 hours post treatment for emesis.

Data set [3] is described as follows: Plasma drug level in treated dogs. In kind it is in vivo, Beagle dogs. The following applies: dog, sc, group 2: sucrose octaacetate/triacetin formulation, 10 mg/kg subcutaneously, read-out: peak plasma levels. The procedure:
as §1, §2

Regarding `N#Cc1nn(-c2c(Cl)cc(C(F)(F)F)cc2Cl)c(N)c1[S+]([O-])C(F)(F)F` (stereo not drawn) [Fipronil, fipronil], the duration of efficacy entry in the data set with fleas and ticks is “not more than three months”. The vomition result in data set [1] was “known to cause vomition”.

For the compound `N#Cc1nn(-c2c(Cl)cc(S(F)(F)(F)(F)F)cc2Cl)c(N)c1SC(F)(F)F` [active compound], the efficacy against fleas in the data set on fleas (group 1: topical formulation, 10% w/v active compound, 5 mg/kg once on Day 0, dogs, held for between 55 and 90 days) was greater than 90%; with fleas (group 2: long acting parenteral formulation (sucrose octaacetate/triacetin), 10 mg/kg subcutaneously once, dogs, maintained for up to between 5 and 6 months), greater than 90%; in the data set with fleas (group 3: long acting parenteral formulation (poly(DL-lactide/glycolide)75/25, 1:1 glycerol formal/triacetin), 10 mg/kg subcutaneously once, dogs, for >12 months), roughly 100%. Besides, the “duration of close to 100% efficacy against fleas” value in the data set on fleas (group 3: long acting parenteral formulation (poly(DL-lactide/glycolide)75/25, 1:1 glycerol formal/triacetin), 10 mg/kg subcutaneously once, dogs) was greater than 12 months. Besides, the vomition result is “Vomition occurred” in data set [2] (group 2: sucrose octaacetate/triacetin formulation) and “No vomition was observed” in data set [2] (group 3: poly(DL-lactide/glycolide) formulation). Also, in data set [3], the Cmax was greater than 100 ng/mL.
